From ChEMBL document CHEMBL1201862, “PubChem BioAssay data set” (2004)
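Step 1: Grow cells in 96-well plates. Step 2: Expose to compound for 48 hours at 5 concentrations. Step 3: Interpolate endpoints linearly; if unreached, use highest concentration. GI50 is the concentration that inhibits growth by half.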 The source made the active and inactive calls. Rule as the data show it: active = GI50 up to about 1.1 µM and inactive = higher.

How the values were obtained:
Assay in all cases: growth of human tumour cells (NCI), 48 h
MDA-MB-435 = system: MDA-MB-435
ACHN = system: ACHN
OVCAR-5 = system: OVCAR-5
NCI-H226 = system: NCI-H226
SF-295 = system: SF-295
Hs-578T = system: Hs-578T
HT-29 = system: HT-29
M14 = system: M14
SN12C = system: SN12C
SK-MEL-28 = system: SK-MEL-28
A549 = system: A549
COLO 205 = system: COLO 205
SNB-75 = system: SNB-75
NCI-H23 = system: NCI-H23
T47D = system: T47D
CAKI-1 = system: CAKI-1
DU-145 = system: DU-145
A498 = system: A498
MCF7 = system: MCF7
KM12 = system: KM12
SF-268 = system: SF-268
K562 = system: K562
UACC-257 = system: UACC-257
SF-539 = system: SF-539
OVCAR-8 = system: OVCAR-8
OVCAR-3 = system: OVCAR-3
U-251 = system: U-251
NCI-H460 = system: NCI-H460
RXF 393 = system: RXF 393
MDA-MB-231 = system: MDA-MB-231
MOLT-4 = system: MOLT-4
SK-OV-3 = system: SK-OV-3
IGROV-1 = system: IGROV-1
SK-MEL-5 = system: SK-MEL-5
SK-MEL-2 = system: SK-MEL-2
NCI-H522 = system: NCI-H522
SNB-19 = system: SNB-19
CCRF-CEM = system: CCRF-CEM
LOX IMVI = system: LOX IMVI
SR = system: SR
SW-620 = system: SW-620
EKVX = system: EKVX
HCT-116 = system: HCT-116
OVCAR-4 = system: OVCAR-4
PC-3 = system: PC-3
RPMI-8226 = system: RPMI-8226
TK-10 = system: TK-10
HOP-62 = system: HOP-62
HOP-92 = system: HOP-92
UACC-62 = system: UACC-62
786-0 = system: 786-0
HL-60 = system: HL-60
HCC 2998 = system: HCC 2998
MDA-N = system: MDA-N
HCT-15 = system: HCT-15
NCI/ADR-RES = system: NCI/ADR-RES

**Q.** `CC1=NN(C(=O)CSc2nc3ccc(I)cc3c(=O)n2Cc2ccccc2)C(=O)C1` was tested. Which GI50 (MDA-MB-435) did it give?
**A.** 26.4 µM (inactive)

**Q.** What about the GI50 (ACHN) of the same compound?
**A.** 28.8 µM (inactive)

**Q.** What about the GI50 (OVCAR-5) of the same compound?
**A.** 65.2 µM (inactive)

**Q.** What about the GI50 (NCI-H226) of the same compound?
**A.** 43.9 µM (inactive)

**Q.** What about the GI50 (SF-295) of the same compound?
**A.** 27.3 µM (inactive)

**Q.** What about the GI50 (Hs-578T) of the same compound?
**A.** 7.89 µM (inactive)

**Q.** What about the GI50 (HT-29) of the same compound?
**A.** 34.3 µM (inactive)

**Q.** And the GI50 (M14)?
**A.** 31.7 µM (inactive)

**Q.** And the GI50 (SN12C)?
**A.** 29.3 µM (inactive)

**Q.** And the GI50 (SK-MEL-28)?
**A.** 57.3 µM (inactive)

**Q.** What about the GI50 (A549) of the same compound?
**A.** 34 µM (inactive)

**Q.** What about the GI50 (COLO 205) of the same compound?
**A.** 33.5 µM (inactive)

**Q.** And the GI50 (SNB-75)?
**A.** 35.3 µM (inactive)

**Q.** And the GI50 (NCI-H23)?
**A.** 16.1 µM (inactive)

**Q.** What about the GI50 (T47D) of the same compound?
**A.** 19.1 µM (inactive)

**Q.** And the GI50 (CAKI-1)?
**A.** 31.8 µM (inactive)

**Q.** What about the GI50 (DU-145) of the same compound?
**A.** 37.1 µM (inactive)

**Q.** What about the GI50 (A498) of the same compound?
**A.** 22.4 µM (inactive)

**Q.** What about the GI50 (MCF7) of the same compound?
**A.** 22.8 µM (inactive)

**Q.** And the GI50 (KM12)?
**A.** 28.3 µM (inactive)

**Q.** What about the GI50 (SF-268) of the same compound?
**A.** 21.4 µM (inactive)

**Q.** And the GI50 (K562)?
**A.** 23.8 µM (inactive)

**Q.** What about the GI50 (UACC-257) of the same compound?
**A.** 34 µM (inactive)

**Q.** And the GI50 (SF-539)?
**A.** 35.8 µM (inactive)

**Q.** And the GI50 (OVCAR-8)?
**A.** 48.8 µM (inactive)

**Q.** What about the GI50 (OVCAR-3) of the same compound?
**A.** 27.9 µM (inactive)

**Q.** What about the GI50 (U-251) of the same compound?
**A.** 25.4 µM (inactive)

**Q.** And the GI50 (NCI-H460)?
**A.** 31.8 µM (inactive)

**Q.** And the GI50 (RXF 393)?
**A.** 25.9 µM (inactive)

**Q.** And the GI50 (MDA-MB-231)?
**A.** 16.9 µM (inactive)

**Q.** And the GI50 (MOLT-4)?
**A.** 24.4 µM (inactive)

**Q.** And the GI50 (SK-OV-3)?
**A.** 29.1 µM (inactive)

**Q.** What about the GI50 (IGROV-1) of the same compound?
**A.** 28.8 µM (inactive)

**Q.** And the GI50 (SK-MEL-5)?
**A.** 21.7 µM (inactive)

**Q.** What about the GI50 (SK-MEL-2) of the same compound?
**A.** 17.2 µM (inactive)

**Q.** And the GI50 (NCI-H522)?
**A.** 7.05 µM (inactive)

**Q.** And the GI50 (SNB-19)?
**A.** 33.7 µM (inactive)

**Q.** What about the GI50 (CCRF-CEM) of the same compound?
**A.** 27.9 µM (inactive)

**Q.** And the GI50 (LOX IMVI)?
**A.** 16.4 µM (inactive)

**Q.** And the GI50 (SR)?
**A.** 16.9 µM (inactive)

**Q.** What about the GI50 (SW-620) of the same compound?
**A.** 46.5 µM (inactive)

**Q.** What about the GI50 (EKVX) of the same compound?
**A.** 23.6 µM (inactive)

**Q.** And the GI50 (HCT-116)?
**A.** 29.9 µM (inactive)

**Q.** What about the GI50 (OVCAR-4) of the same compound?
**A.** 24.2 µM (inactive)

**Q.** What about the GI50 (PC-3) of the same compound?
**A.** 17.2 µM (inactive)

**Q.** What about the GI50 (RPMI-8226) of the same compound?
**A.** 35 µM (inactive)

**Q.** And the GI50 (TK-10)?
**A.** 47.6 µM (inactive)

**Q.** And the GI50 (HOP-62)?
**A.** 39.6 µM (inactive)

**Q.** And the GI50 (HOP-92)?
**A.** 36.1 µM (inactive)

**Q.** And the GI50 (UACC-62)?
**A.** 26.4 µM (inactive)

**Q.** And the GI50 (786-0)?
**A.** 36.9 µM (inactive)

**Q.** And the GI50 (HL-60)?
**A.** 33.3 µM (inactive)

**Q.** And the GI50 (HCC 2998)?
**A.** 39.1 µM (inactive)

**Q.** And the GI50 (MDA-N)?
**A.** 31.2 µM (inactive)

**Q.** And the GI50 (HCT-15)?
**A.** 21.5 µM

**Q.** What about the GI50 (NCI/ADR-RES) of the same compound?
**A.** 20.9 µM (inactive)
